Assay [1] concerns Lasiodiplodia iranensis DWH-2. In words: JA production by Lasiodiplodia iranensis cultures under shaking conditions, JA content by HPLC. The format is cell-based.
Assay [2] deals with Lasiodiplodia iranensis DWH-2. In words: Morphology of Lasiodiplodia iranensis cultures under shaking conditions. The format is cell-based. To be noted: shaking 250 rpm, 30° C.
Where [3] appears, read: shaker 250 rpm, 30° C., eight days, 200 mg/L IAA and sodium butyrate, 100 mg/L SA and ASA, 10 mg/L VA, 2 mM H2O2.

Consider eight molecules from patent US20230175033A1, “PRODUCTION OF JASMONATES IN FILAMENTOUS FUNGI” (Sumitomo Chemical Company, Limited, priority 2020, published 2023).

Where two headings read alike, the source gives them in different places.

Take `CC(=O)Oc1ccccc1C(=O)O` [ASA, acetylsalicylic acid]: in assay [1] (setting [3]), the “Titer (mg/L), production of JA with a jasmonate production elicitor” value (“Titer (mg/L), production of JA” for short) was 100 mg/L.
On the same count and under the same terms, the same measure for `OO` [H2O2, hydrogen peroxide]: 160 mg/L; for `O=C([O-])Cc1c[nH]c2ccccc12.[Na+]` [IAA, Indole-3-acetic acid sodium salt]: 400 mg/L.
For `O=C([O-])c1ccccc1O.[Na+]` [SA, salicylic acid sodium salt], in assay [1], the “Titer (mg/L), production of JA” value worked out at 150 mg/L.
As to `CCCC(=O)[O-].[Na+]` [Sodium butyrate, sodium butyrate], in assay [1], the “Titer (mg/L), production of JA” value was 175 mg/L.
As to `CCCC(CCC)C(=O)[O-].[Na+]` [VA, valproic acid sodium salt], the “Titer (mg/L), production of JA” value in assay [1] (setting [3]) was 350 mg/L.
For `CC(C)=CCCC(C)=CCCC(C)=CCO` [farnesol], the “effect on fungal morphology” value in assay [2] (100 mg/L farnesol, nine days) is on record as “induced mycelial aggregation”.
`OCCc1ccc(O)cc1` [tyrosol]: the “effect on fungal morphology” value in assay [2] (100 mg/L tyrosol, seven days) was “induced mycelial aggregation”.
